Measurements reported in US20240083910A1, “AMIDO-SUBSTITUTED PYRIDYL COMPOUNDS AND METHODS OF USE THEREOF FOR THE TREATMENT OF HERPESVIRUSES” (Merck Sharp & Dohme LLC, priority 2020, published 2024).
Read-outs that look alike come from different tables or passages of the source.

Tests used:
[1] = system: HSV-1 Strain F; assay: Viral qPCR assay, HSV-1; type: cell-based, Herpes Simplex Virus type 1; details: Human alphaherpesvirus 1, 72 h, Vero or MRC5 cells, 0.0005-0.004 pfu/cell, growth medium, viral genome copies by qPCR, read-out: HSV1 Cell (EC50)
Protocol: (§1) MRC5 cells, Vero cells, and MeWo cells were obtained from ATCC, and were maintained at 37° C./5% CO2/90% relative humidity in Minimal Essential Medium with 10% fetal bovine serum, […] L-glutamine, 100 units/ml penicillin and 100 ug/ml streptomycin. Assay plates were prepared by dispensing compounds dissolved in DMSO into wells of 384 well collagen-coated plates using an ECHO acoustic dispenser. Each compound was tested in a 10-point, serial 3-fold dilution. Controls included uninfected cells and infected cells treated only with DMSO. Assays were initiated by mixing selected cells, in suspension, with virus, and dispensing 50 μl/well infected cells to pre-plated compounds. Plates were incubated at 37° C./5% CO2/90% relative humidity for ˜72 hrs to permit genomic replication, and infected cells were lysed by the addition of an equal volume of lysis buffer (10 mM Tris-HCl, pH8, 50 mM KCl, 2 mM MgCl2, 0.45% NP-40, 0.45% Tween-20, and 100 μg/ml proteinase K). An aliquot of the lysate was transferred to a 384-well PCR plate and incubated at 56° C. for 1 hour and then at 95° C. for 10 min. Levels of a viral gene and of the cellular control, PPIA (Thermo Fisher Assay ID=Hs04194521_s1), were measured in separate 10 ul qPCR assays using TaqMan® Gene Expression Master Mix (Applied Biosystems), and an 7900HT Fast Real-Time PCR System with 384-Well Block Module. 7-point, serial 10-fold dilutions of a plasmid standard were run on each plate to generate a standard curve, and genome copies numbers were calculated by plotting experimental Ct onto linear regression of the standard curve. Viral genome copy numbers were normalized by cellular control copy number, and compound effects were normalized to the window defined by the controls. Calculated % effects were fit using a 4-parameter algorithm, and EC50 was reported.
(§2) MRC5 cells, Vero cells, and MeWo cells were obtained from ATCC, and were maintained at 37° C./5% CO2/90% relative humidity in Minimal Essential Medium with 10% fetal bovine serum, […] L-glutamine, 100 units/ml penicillin and 100 ug/ml streptomycin. Assay plates were prepared by dispensing compounds dissolved in DMSO into wells of 384 well collagen-coated plates using an ECHO acoustic dispenser. Each compound was tested in a 10-point, serial 3-fold dilution. Controls included uninfected cells and infected cells treated only with DMSO. Assays were initiated by mixing selected cells, in suspension, with virus, and dispensing 50 μl/well infected cells to pre-plated compounds. Plates were incubated at 37° C./5% CO2/90% relative humidity for ˜72 hrs to permit genomic replication, and infected cells were lysed by the addition of an equal volume of lysis buffer (10 mM Tris-HCl, pH 8, 50 mM KCl, 2 mM MgC12, 0.45% NP-40, 0.45% Tween-20, and 100 μg/ml proteinase K). An aliquot of the lysate was transferred to a 384-well PCR plate and incubated at 56° C. for 1 hour and then at 95° C. for 10 min. Levels of a viral gene were measured in 10 ul qPCR assays using TaqMan® Gene Expression Master Mix (Applied Biosystems), and an 7900HT Fast Real-Time PCR System with 384-Well Block Module. 7-point, serial 10-fold dilutions of a plasmid standard were run on each plate to generate a standard curve, and genome copies numbers were calculated by plotting experimental Ct onto linear regression of the standard curve. Compound effects on viral genome copy number were normalized to the window defined by the controls. Calculated % effects were fit using a 4-parameter algorithm, and ECso was reported.
HSV-1: Strain F […] was assayed in Vero or MRC5 cells and was used at 0.0005-0.004 pfu/cell in growth medium. Primer-probe set was Thermo Fisher Assay ID=AIBJZIB

[2] = system: VZV; assay: Viral qPCR assay, VZV; type: cell-based, varicella zoster virus; details: MeWo or MRC5 cells, 0.04-0.1 pfu/cell, growth medium, viral genome copies by qPCR
Protocol: as §1, §2
VZV: Strain Street was maintained as an infected cell stock in MRC-5 cells. It was assayed in MeWo or MRC5 cells and was used at 0.04-0.1 pfu/cell. The assays were performed in growth medium. Primer-probe set was Thermo Fisher Assay ID=AIPAEXQ.

[3] = target: T1, Human cytomegalovirus DNA polymerase (Human cytomegalovirus, UniProt P08546); assay: CMV polymerase assay (AlphaLISA); type: biochemical; details: HCMV polymerase 0.2 nM; 30 min pre-incubation; 60 min at 37° C.; read-out: CMV (IC50)
T1 construct: made in house; host or cells: SF21 insect cells (baculovirus vector)
Protocol: (§3) Human cytomegalovirus and varicella zoster virus DNA polymerases were expressed via baculovirus vector in SF21 cells and purified. Heterodimeric nucleic acid substrate used in the herpesvirus polymerase reactions was generated by annealing a 59-mer template to a 17-mer digoxigenin-labeled primer. Polymerase (HCMV final concentration of 0.2 nM; VZV final concentration of 0.4 nM) was combined with an inhibitor compound or DMSO in assay buffer (10 mM HEPES, pH 7.5, 25 mM KCl, 25 mM NaCl, 5 mM MgCl2, 5% glycerol, 0.67 mg/ml bovine serum albumin, and 1 mM tris(2-carboxyethyl)phosphine), and this mixture was pre-incubated for 30 minutes at room temperature in 384-well microtiter plates. The polymerization reaction was initiated by the addition of template/primer substrate (final concentration: 1.6 nM), and dNTPs (final concentration: 24 nM dCTP, 24 nMdGTP, 16 nM dATP, 16 nM dTTP, and 0.8 nM biotin-dUTP). After 60 min incubation at 37° C., reactions were terminated with quench buffer (25 mM HEPES pH 7.5, 100 mM NaCl, 0.25% Tween-20, 12 mM EDTA, and 1 mg/ml bovine serum albumin). Incorporation of biotinylated UTP was detected with 2.5-5 ug/ml anti-DIG AlphaLISA acceptor beads and 5-10 ug/ml streptavidin AlphaLISA donor beads (PerkinElmer). Compound effects were normalized to the window defined by the controls (DMSO only and pre-quenched wells) and were fit using a 4-parameter algorithm to report an IC50.

[4] = system: HCMV Strain AD169; assay: Viral qPCR assay, HCMV; type: cell-based, Human cytomegalovirus; details: MRC-5 cells, 0.05-0.1 pfu/cell, growth media or 50% fetal bovine serum, viral genome copies by qPCR, read-out: CMV Cell (EC50)
Protocol: as §1, §2
HCMV: Strain AD169 Street was assayed in MRC-5 cells and was used at 0.05-0.1 pfu/cell. The assays were performed in either growth media or in the same media with 50% fetal bovine serum. Primer-probe set was Thermo Fisher Assay ID=AIFATFK.

[5] = target: T2, varicella zoster virus DNA polymerase (Varicella-zoster virus, UniProt P09252); assay: VZV polymerase assay (AlphaLISA); type: biochemical; details: VZV polymerase 0.4 nM; 30 min pre-incubation; 60 min at 37° C.
T2 construct: made in house; host or cells: SF21 insect cells (baculovirus vector)
Protocol: as §3

[6] = Human betaherpesvirus 5, AD169, MRC5, 72 h

T1 sequence (P08546 whole entry): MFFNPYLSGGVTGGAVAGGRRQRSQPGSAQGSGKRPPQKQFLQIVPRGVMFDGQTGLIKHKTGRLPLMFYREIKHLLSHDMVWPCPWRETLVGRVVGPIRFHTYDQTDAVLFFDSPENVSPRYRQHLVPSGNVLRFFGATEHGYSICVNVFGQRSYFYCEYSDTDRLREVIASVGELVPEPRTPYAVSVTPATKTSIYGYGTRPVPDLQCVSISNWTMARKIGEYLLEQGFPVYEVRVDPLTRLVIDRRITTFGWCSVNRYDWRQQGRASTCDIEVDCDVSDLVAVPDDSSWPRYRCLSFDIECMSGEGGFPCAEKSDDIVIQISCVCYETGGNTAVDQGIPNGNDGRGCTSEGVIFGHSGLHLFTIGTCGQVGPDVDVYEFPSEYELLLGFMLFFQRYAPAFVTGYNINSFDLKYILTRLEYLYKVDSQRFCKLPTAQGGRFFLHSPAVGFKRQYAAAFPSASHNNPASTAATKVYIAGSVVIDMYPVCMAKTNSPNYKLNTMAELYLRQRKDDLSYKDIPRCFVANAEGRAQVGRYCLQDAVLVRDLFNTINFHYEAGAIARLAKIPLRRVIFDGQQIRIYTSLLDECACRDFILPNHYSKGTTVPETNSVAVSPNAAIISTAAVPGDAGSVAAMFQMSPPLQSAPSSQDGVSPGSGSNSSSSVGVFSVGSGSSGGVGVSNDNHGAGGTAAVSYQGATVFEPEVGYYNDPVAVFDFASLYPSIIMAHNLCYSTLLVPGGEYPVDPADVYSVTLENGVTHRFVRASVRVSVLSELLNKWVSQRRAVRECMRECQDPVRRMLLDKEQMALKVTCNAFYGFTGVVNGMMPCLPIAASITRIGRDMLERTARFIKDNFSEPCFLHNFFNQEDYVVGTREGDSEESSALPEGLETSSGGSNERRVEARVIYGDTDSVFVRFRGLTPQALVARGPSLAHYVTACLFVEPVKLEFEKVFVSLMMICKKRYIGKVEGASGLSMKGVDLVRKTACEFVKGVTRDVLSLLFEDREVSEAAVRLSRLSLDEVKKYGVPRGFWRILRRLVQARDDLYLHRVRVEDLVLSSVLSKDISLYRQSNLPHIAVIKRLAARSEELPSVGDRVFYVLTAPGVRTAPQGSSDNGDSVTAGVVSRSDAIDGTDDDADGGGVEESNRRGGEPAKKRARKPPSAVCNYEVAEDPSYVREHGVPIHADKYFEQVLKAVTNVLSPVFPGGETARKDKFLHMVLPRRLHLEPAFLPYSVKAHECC
T2 sequence (P09252 whole entry): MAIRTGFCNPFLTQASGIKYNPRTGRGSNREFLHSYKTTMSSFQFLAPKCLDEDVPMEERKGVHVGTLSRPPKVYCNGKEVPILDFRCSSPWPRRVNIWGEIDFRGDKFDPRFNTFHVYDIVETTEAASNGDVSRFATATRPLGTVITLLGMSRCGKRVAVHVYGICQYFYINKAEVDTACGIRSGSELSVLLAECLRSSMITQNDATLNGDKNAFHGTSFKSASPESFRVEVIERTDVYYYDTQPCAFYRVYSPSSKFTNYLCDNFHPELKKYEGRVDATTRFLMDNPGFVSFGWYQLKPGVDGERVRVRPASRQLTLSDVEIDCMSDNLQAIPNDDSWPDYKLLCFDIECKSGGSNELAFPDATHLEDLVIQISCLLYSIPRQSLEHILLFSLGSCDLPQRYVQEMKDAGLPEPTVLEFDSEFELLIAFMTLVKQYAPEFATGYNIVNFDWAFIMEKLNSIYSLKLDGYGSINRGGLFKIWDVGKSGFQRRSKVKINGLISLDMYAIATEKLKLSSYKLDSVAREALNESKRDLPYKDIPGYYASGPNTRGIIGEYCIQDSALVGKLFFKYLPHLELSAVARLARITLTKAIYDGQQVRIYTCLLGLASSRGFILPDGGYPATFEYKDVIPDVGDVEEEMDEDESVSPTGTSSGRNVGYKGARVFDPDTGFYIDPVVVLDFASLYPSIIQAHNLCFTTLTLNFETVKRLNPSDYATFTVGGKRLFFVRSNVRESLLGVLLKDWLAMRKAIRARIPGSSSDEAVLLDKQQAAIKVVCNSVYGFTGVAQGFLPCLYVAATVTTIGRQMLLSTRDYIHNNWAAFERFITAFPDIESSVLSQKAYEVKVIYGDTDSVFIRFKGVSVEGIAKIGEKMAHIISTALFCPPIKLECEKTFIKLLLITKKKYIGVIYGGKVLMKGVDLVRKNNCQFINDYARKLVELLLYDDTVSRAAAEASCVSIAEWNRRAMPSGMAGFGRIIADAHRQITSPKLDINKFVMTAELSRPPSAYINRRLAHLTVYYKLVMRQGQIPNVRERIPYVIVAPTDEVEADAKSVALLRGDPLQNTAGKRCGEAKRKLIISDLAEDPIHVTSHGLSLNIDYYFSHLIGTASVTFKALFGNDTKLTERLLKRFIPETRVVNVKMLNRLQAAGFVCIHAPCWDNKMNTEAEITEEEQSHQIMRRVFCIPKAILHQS

**Q.** How did the EC50 [1] turn out when `COc1nc(-c2cnn(C(F)F)c2)c(O[C@H]2CCN3C(=O)OC[C@@H]3C2)cc1C(=O)NCc1ccc(C#N)cc1F` [Compound 59] was run?
**A.** 80.6 nM

**Q.** And the EC50 ([2]; Human alphaherpesvirus 3, 72 h)?
**A.** 160 nM

**Q.** What about the IC50 [3] of the same molecule?
**A.** 3.25 nM

**Q.** And the EC50 [4, 6]?
**A.** 324 nM

**Q.** For `COc1nc(-c2cc[nH]c2)c(O[C@H]2CCN3C(=O)OC[C@@H]3C2)cc1C(=O)NCc1ccc(Cl)cc1` [Compound 28], which EC50 [1] is on record?
**A.** 103 nM

**Q.** And the EC50 ([2]; Human alphaherpesvirus 3, 72 h)?
**A.** 196 nM

**Q.** And the IC50 [3]?
**A.** 5.36 nM

**Q.** What about the EC50 [4, 6] of the same molecule?
**A.** 200 nM

**Q.** How did the EC50 [1] turn out when `CC(C)(C#N)COc1nc(-c2cnn(C(F)F)c2)c(O[C@H]2CCN3C(=O)OC[C@@H]3C2)cc1C(=O)NCc1ccc(Cl)cc1` [Compound 92] was run?
**A.** 229 nM

**Q.** And the EC50 ([2]; Human alphaherpesvirus 3, 72 h)?
**A.** 417 nM

**Q.** What about the IC50 [3] of the same molecule?
**A.** 7.31 nM

**Q.** And the EC50 [4, 6]?
**A.** 137 nM

**Q.** How did the EC50 [1] turn out when `O=C(NCc1ccc(Cl)cc1)c1cc(O[C@H]2CCN3C(=O)OC[C@@H]3C2)c(-c2cnn(C(F)F)c2)nc1OCCF` [Compound 89] was run?
**A.** 203 nM

**Q.** What about the EC50 ([2]; Human alphaherpesvirus 3, 72 h) of the same molecule?
**A.** 246 nM

**Q.** What about the IC50 [3] of the same molecule?
**A.** 12.1 nM

**Q.** And the EC50 [4, 6]?
**A.** 195 nM

**Q.** Which EC50 [1] does the source give for `COc1nc(C2CC2O)c(O[C@H]2CCN3C(=O)OC[C@@H]3C2)cc1C(=O)NCc1ccc(Cl)cc1` (single isomer, unassigned) [Compound 78] here?
**A.** 644 nM

**Q.** And the EC50 ([2]; ~72 hrs)?
**A.** 1850 nM

**Q.** And the IC50 [3]?
**A.** 49 nM

**Q.** And the EC50 ([4]; ~72 hrs)?
**A.** 616 nM

**Q.** For `COc1nc(-c2cnc(C3CC3)s2)c(O[C@H]2CCN3C(=O)OC[C@@H]3C2)cc1C(=O)NCc1ccc(Cl)cc1` [Compound 63], which EC50 [1] is on record?
**A.** 148 nM

**Q.** And the EC50 ([2]; Human alphaherpesvirus 3, 72 h)?
**A.** 167 nM

**Q.** What about the IC50 [3] of the same molecule?
**A.** 8.74 nM

**Q.** And the EC50 [4, 6]?
**A.** 164 nM

**Q.** `CN1C(=O)NC[C@@H]1COc1nc(-c2cnn(C(F)F)c2)c(O[C@H]2CCN3C(=O)OC[C@@H]3C2)cc1C(=O)NCc1ccc(Cl)cc1` [Compound 94] was tested. Which EC50 [1] did it give?
**A.** 773 nM

**Q.** And the EC50 ([2]; Human alphaherpesvirus 3, 72 h)?
**A.** 2180 nM

**Q.** And the IC50 [3]?
**A.** 5.15 nM

**Q.** And the EC50 [4, 6]?
**A.** 520 nM

**Q.** What does the source list for `COc1nc(-c2cc3ccccc3o2)c(O[C@H]2CCN3C(=O)OC[C@@H]3C2)cc1C(=O)NCc1ccc(Cl)cc1` [Compound 20]?
**A.** EC50 [1]: 1440 nM; EC50 ([2]; Human alphaherpesvirus 3, 72 h): 1870 nM; IC50 [3]: 25.3 nM; EC50 [4, 6]: 587 nM

**Q.** With `CN1CCN(CCCOc2nc(-c3cnn(C(F)F)c3)c(O[C@H]3CCN4C(=O)OC[C@@H]4C3)cc2C(=O)NCc2ccc(Cl)cc2)CC1` [Compound 98] as the molecule, how does the EC50 [1] read?
**A.** 290 nM

**Q.** And the EC50 ([2]; Human alphaherpesvirus 3, 72 h)?
**A.** 617 nM

**Q.** And the IC50 [3]?
**A.** 14.1 nM

**Q.** What about the EC50 [4, 6] of the same molecule?
**A.** 115 nM

**Q.** What does the source list for `COc1nc(-c2cncs2)c(O[C@H]2CCN3C(=O)OC[C@@H]3C2)cc1C(=O)NCc1ccc(Cl)cc1` [Compound 16]?
**A.** IC50 [3]: 2.07 nM; IC50 [5]: 0.63 nM; EC50 [4, 6]: 137 nM

**Q.** Which results are given for `CN(C)CCOc1nc(-c2cnn(C(F)F)c2)c(O[C@H]2CCN3C(=O)OC[C@@H]3C2)cc1C(=O)NCc1ccc(Cl)cc1` [Compound 88]?
**A.** EC50 [1]: 257 nM; EC50 ([2]; Human alphaherpesvirus 3, 72 h): 317 nM; IC50 [3]: 3.16 nM; EC50 [4, 6]: 32.5 nM
